Reference: ChEMBL document CHEMBL5209565, “pH biosensor based assay for SLC16A3 using HEK-293 SLC16A3 OE cells” (2022)

Molecular target: T1, Monocarboxylate transporter 4 (Homo sapiens) (UniProt O15427)
T1 sequence (whole entry): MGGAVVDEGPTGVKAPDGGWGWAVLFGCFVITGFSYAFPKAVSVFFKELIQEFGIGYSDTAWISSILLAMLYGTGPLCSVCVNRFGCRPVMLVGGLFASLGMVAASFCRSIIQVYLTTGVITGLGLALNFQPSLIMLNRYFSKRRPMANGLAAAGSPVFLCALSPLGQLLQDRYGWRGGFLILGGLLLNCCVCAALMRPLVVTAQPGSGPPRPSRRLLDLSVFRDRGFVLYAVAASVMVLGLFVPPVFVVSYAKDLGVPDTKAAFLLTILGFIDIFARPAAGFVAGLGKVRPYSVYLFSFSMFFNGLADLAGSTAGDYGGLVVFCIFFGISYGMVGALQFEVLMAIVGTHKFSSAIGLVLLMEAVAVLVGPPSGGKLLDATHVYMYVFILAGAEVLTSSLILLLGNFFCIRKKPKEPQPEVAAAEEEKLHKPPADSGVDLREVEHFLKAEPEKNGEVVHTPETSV
Test: Substrate uptake by the monocarboxylate transporter 4 (MCT4, SLC16A3) as assessed by a sensor pH-sensitive genetically encoded fluorescent sensor (pHAxensor) in HEK-293 JumpIN-SLC16A3 cells (PubChem AID: 1794833)
Type: functional, cell-based
Conditions: HEK293

Question: For CC(O)C(=O)O (stereo unspecified), which proof of principle is on record?
Answer: Substrate. In Comparison To Wild-Type And Not Induced Cells, Cells With Induced Slc16A3 Expression Showed A Specific Transporter Activity, Upon Substrate Addition, Detected As Decrease Of Intracellular Ph, Recorded As Quenching Of The Sensor Fluorescence Signal.
